Laboratory results taken from publication PMC7083880 (Nature Communications, 2020).

Columns and labels:
HeLa cells = test: 2D differential gel electrophoresis (2D-DIGE) of whole proteome; assay type: cell-based, human
[1] = DAP stability assay in human liver S9; assay type: in vitro ADME; details: pooled human liver S9 fraction, 37 °C, read-out: Recovery of the molecule after incubation
Procedure: The S9 mix was composed of 5 mM glucose-6-phosphate (Ref. G7879, Batch no. SLBP253V, Sigma, France), 33.5 mM KCl (Ref. P3911, Batch no. SLBQ3328V, Sigma, France), 8 mM MgCl2 (Ref. M8266, Batch no. SLBK9099V, Sigma, France), 4 mM β-NADP (Ref. N5755, Batch no. SLBJ7935V, Sigma, France), and 100 mM NaH2PO4 (Ref. S3139, Batch no. BCBT3558, Sigma, France) in ultrapure water (Ref. BE51200, Batch no. BCBT3558, Lonza, France). Seventy-five microliters of human liver S9 fraction (Pooled Human Liver S9, 20 mg/ml, Ref. 452961, BD, France) was then added to 1380 µl of this S9 mix. The solution was warmed for 15 min at 37 °C in a thermostated water bath. The final protein concentration was 1 mg/ml after addition of working solutions.
The samples were then centrifuged and directly analyzed by LC–MS. The extraction efficiency was estimated at 97.2%. After extraction, the collected supernatants were directly injected into the HPLC system for analysis. Analysis was performed by MS to allow detection of potential metabolite(s).

[2] = test system: Calu-6 cell tumors in nude mice; test: In vivo established Calu-6 tumors: tumor size and p53 western blot; set-up: species or system mouse
Procedure: For each experimental condition, 7 mice were used. b Fourteen nude mice were injected with Calu-6 cells to promote tumor development. […] The arrow indicates the starting time of the exposure to DMSO or DAP. For each experimental condition, 7 mice were used. […] GAPDH was used as loading control. A molecular weight marker is indicated to the left of the gel. The results presented in this figure are representative of two independent experiments. p-values (p) were calculated using Student’s t-test. Source data are provided as a Source Data file.
Next, the capacity of DAP to correct UGA nonsense mutations in vivo was assessed in a mouse model. Four-week-old immunodeficient nude mice were injected with an identical number of Calu-6 cells carrying a UGA nonsense mutation in the TP53 gene, of HCC-GR6 cells having a wild-type TP53 gene or of p53-null 4T1 cells. […] The slower growth of Calu-6-cell-derived tumors in DAP-treated mice is thus likely due to rescue of p53 protein synthesis in these tumors, as expected on the basis of our cell culture experiments and as observed after western-blotting applied to protein extracts of tumors from DAP-treated mice (Supplementary Fig. 8B). Because of the small size of the Calu-6 tumors in DAP-treated mice and thus the high probability of collecting mouse cells upon tumor excision, quantitation of p53 was done in another experiment.
To initiate tumor growth, 6-week-old nude mice received subcutaneously 10 million cells suspended in PBS. […] Tumors were measured three times weekly for 5 weeks to determine the tumor volume by the following formula: l (mm) × L (mm) × L (mm). The tumors were then collected and a fraction was used for western blot analysis after protein extraction. All in vivo experiments complied with all relevant ethical regulations for animal testing and research and were authorized by the Ethic Committee 075 under the number 12971-2018010815336092.

[3] = test system: endogenous TP53 gene with UAG nonsense mutation in Caco-2 cells; test: p53 protein western blot, Caco-2 cells; assay type: cell-based, human; details: Caco-2 (UAG); 24 h
Procedure: After 24 h of treatment, proteins were extracted from the cells and the p53 protein was assessed by western blotting (Fig. 2a). After DMSO mock treatment, as anticipated, no p53 protein was detected, because of the presence of the PTC in p53 mRNA[33].
The three leftmost lanes show twofold serial dilutions of untreated HeLa cell extract. The molecular weight is indicated to the left of each gel. b Schematic representation of the construct used to measure the function of p53. The construct carries a cDNA encoding the firefly luciferase under a promoter having two p53-responsive elements (underlined). […] The level of p21 mRNA is related to the amount of functional p53 protein synthesized in the cell. The results presented in panels b and c are representative of at least two independent experiments., p-values (p) were calculated using Student’s t-test. Source data are provided as a Source Data file. […]
The equivalent of 2.5 × 10^5 cells was subjected to 10% SDS–PAGE before transfer of the proteins to a nitrocellulose membrane. […] Antibodies were then detected with Super Signal West Femto Maximum Sensitivity Substrate (Pierce-Biotechnology, Rockford, IL, USA). Quantifications were performed with QuantityOne software (Biorad). […]

Nc1nc(N)c2[nH]cnc2n1 [DAP, 2,6-diaminopurine]
Pearson correlation coefficient of proteome profiles DAP vs DMSO (HeLa cells): 0.94
recovery at 4 h, 300 µM [1]: > 80%
Tumor size, average of 7 mice ([2]; measure 1 of 10 (time not given), DAP started when tumors about 0.4 cm^3): 0.002 cm^3
Tumor size, average of 7 mice ([2]; measure 2 of 10 (time not given)): 0.02357 cm^3
Tumor size, average of 7 mice ([2]; measure 3 of 10 (time not given)): 0.05086 cm^3
Tumor size, average of 7 mice ([2]; measure 4 of 10 (time not given)): 0.07071 cm^3
Tumor size, average of 7 mice ([2]; measure 5 of 10 (time not given)): 0.1153 cm^3
Tumor size, average of 7 mice ([2]; measure 6 of 10 (time not given)): 0.1741 cm^3
Tumor size, average of 7 mice ([2]; measure 7 of 10 (time not given)): 0.2344 cm^3
Tumor size, average of 7 mice ([2]; measure 8 of 10 (time not given)): 0.3563 cm^3
Tumor size, average of 7 mice ([2]; measure 9 of 10 (time not given)): 0.4617 cm^3
Tumor size, average of 7 mice ([2]; measure 10 of 10 (time not given)): 0.5429 cm^3
Synthesis of p53 protein (western blot) [3]: not in Caco-2 cells
